# In US8445281B2, “In vitro exposure of immature oocytes to BDNF enhances generation of embryonic stem cells” (The Board of Trustees of the Leland Stanford Junior …, priority 2006, dated 2013):
# How the values were obtained:
# [1] = test system: oocytes (cumulus oocyte complexes); test: First polar body extrusion by oocytes in cultured COCs; format: cell-based, mouse; settings: for first polar body extrusion in cultured oocytes: COCs cultured 20 h without FBS, NGF and NT-3 at 10 ng/ml; for effect on the stimulatory effect of BDNF on first polar body extrusion: COCs, cotreatment with BDNF
# Description: Evaluation of First Polar Body Extrusion. For evaluating the transition from metaphase I stage to metaphase II (MII) stage oocytes, COCs were obtained from mouse ovaries 48 h after PMSG treatment by puncturing the largest follicles in M2 medium (Specialty Media, Phillipsburg, N.J.). COCs were washed twice, transferred to modified M16 medium (Specialty Media) without FBS, and cultured with or without different doses of BDNF, mouse nerve growth factor (NGF; R & D Systems), or human neurotrophin-3 (NT-3) (R & D Systems) for 20 h at 37° C. in 5% CO2/95% air. Some COCs were also cultured with BDNF with or without the TrkB ectodomain (R & D Systems), pan-specific Trk receptor inhibitor K252a (Calbiochem), or K252b. The occurrence of first polar body extrusion in the oocyte was examined after removing cumulus cells by using a small-bore pipette under Hoffman contrast microscopy (Nikon).
# Trk receptor [2] = test: In vivo treatment, progression of zygotes into blastocysts in vitro; design: species or system mouse; settings: 10 μg i.p. at 0, 4, 8 h after hCG; for decrease in number of cells in the blastocysts / suppression of development of zygotes into blastocyst stage embryos: fertilized oocytes cultured 5 days
# Description: (§1) In Vivo Analysis. […] For negative controls, the plasma membrane nonsoluble K252b was used. Twelve hours after hCG injection, ovulated COCs were obtained from the oviducts. After treatment with hyaluronidase (Specialty Media) for 1-2 min, oocytes were separated from cumulus cells and the proportion of oocytes showing first polar body extrusion was evaluated. To evaluate the role of BDNF in the conditioning of oocytes for early embryo development, immature mice were treated with PMSG, followed by hCG as described above. […] Fertilized oocytes were separated from cumulus cells, washed three times in M2 medium, and cultured for 5 days in modified M16 medium. Embryonic development was monitored daily, and the progression of fertilized eggs into preimplantation embryos was assessed.
# Trk receptor [3] = test: In vivo first polar body extrusion by ovulated oocytes; design: species or system mouse; settings: PMSG-primed mice, hCG with i.p. compound, 12 h after hCG
# Description: as §1
# [4] = test system: oocytes of preovulatory follicles; test: Preovulatory follicle culture, GVBD of oocytes; format: cell-based, mouse; settings: cultured preovulatory follicles
# Description: Follicle Cultures. Preovulatory follicles were excised from mouse ovaries 48 h after PMSG treatment and cultured to examine nuclear maturation of oocytes (Kawamura et al. (2004) Proc. Natl. Acad. Sci. USA 101, 7323-7328). […] The vials were flushed at the start of the culture with O2/N2 (at a 1:1 ratio), sealed, and cultured at 37° C. with gentle shaking for 6 h. After culture, cumulus oocyte complexes (COCs) were isolated, and, after cumulus cells were removed, oocytes were examined for the occurrence of GVBD.
# MII oocytes = test: Glutathione content in oocytes; format: cell-based, mouse; settings: COCs treated 16 h
# Description: FIGS. 4A-E depict BDNF conditioning of oocytes for development into preimplantation embryos. FIG. 4A is a bar graph indicating the percentage of MII oocytes that developed to two-cell or blastocyst-stage embryos. Specifically, COCs obtained from preovulatory follicles were cultured without (control) or with BDNF (3 ng/ml) for 16 h. After progression to the MII stage, oocytes were inseminated and cultured for 5 days more without hormones. The percentage of MII oocytes that developed to two-cell or blastocyst-stage embryos were evaluated (n=5, 34-95 oocytes per experiment). FIG. 4B indicates the effects of BDNF treatment on glutathione (GSH) content in oocytes. After treatment of COCs for 16 h without (control, C) or with BDNF, glutathione levels in oocytes at MII oocytes were evaluated (mean±SEM, n=6). FIG. 4C depicts the effects of K252a treatment in vivo on the progression of zygotes into blastocysts in vitro. […] After initial injection, mice were allowed to mate with fertile males. Fertilized oocytes were cultured for 5 days, and the number of blastocyst embryos was evaluated. FIG. 4D depicts the effects of K252a treatment on the number of cells in the blastocysts. […]
# Because the oocyte content of glutathione is important to sperm nuclear decondensation, the glutathione concentration in oocytes also was evaluated. […]
# [5] = test system: oocytes (cumulus oocyte complexes); test: In vitro maturation, fertilization and early embryonic development; format: cell-based, mouse
# Description: In Vitro Maturation, Fertilization, and Early Embryonic Development. We performed in vitro maturation of oocytes followed by in vitro fertilization as previously described, with slight modifications. COCs from PMSG-primed mice were obtained in the M2 medium supplemented with 5% FBS before culturing in minimum essential media-α (Invitrogen) supplemented with Earle's salts, 10 μg/ml streptomycin sulfate, 75 μg/ml penicillin G, and 5% FBS in the presence or absence of 3 ng/ml BDNF at 37° C. in 5% CO2/95% air. After 16 h of treatment, cumulus cells were removed and the oocytes were examined and classified according to their developmental stage (germinal vesicle, metaphase I, or MII). MII-stage oocytes were inseminated with sperm from B6D2F1 males and incubated for 4 h at 37° C. in 5% CO2/95% air. After in vitro fertilization, fertilized oocytes were recovered, washed three times, and cultured in human tubal fluid medium (Specialty Media). The following morning, two-cell stage embryos were collected and cultured in 2 ml of modified M16 medium for 5 days more up to the blastocyst stage at 37° C. in 5% CO2/95% air. Embryonic development was monitored daily by Hoffman modulation contrast microscopy, and the progression of fertilized eggs to preimplantation embryos was assessed.
# [6] = pretreatment 3 ng/ml BDNF 16 h, then in vitro fertilization without BDNF
Molecule,first polar body extrusion in cultured oocytes [1],effect on the stimulatory effect of BDNF on first polar body extrusion [1],decrease in number of cells in the blastocysts (Trk receptor [2]),suppression of development of zygotes into blastocyst stage embryos (Trk receptor [2]),inhibition of first polar body extrusion by ovulated oocytes (Trk receptor [3]),number of ovulated oocytes per animal (Trk receptor [3]),other results
"TrkB ectodomain: TrkB ectodomain (R & D Systems), antagonises BDNF stimulation",ineffective,blocked,,,,,
CC12OC(CC1(O)C(=O)O)n1c3ccccc3c3c4c(c5c6ccccc6n2c5c31)C(=O)NC4 (stereo not shown) [K252b],,not,not,ineffective,ineffective,38.4±8.7,
COC(=O)[C@@]1(O)C[C@H]2O[C@]1(C)n1c3ccccc3c3c4c(c5c6ccccc6n2c5c31)C(=O)NC4 [K252a],,suppressed,51%,72%,30%,37.8±5.3,number of fertilized oocytes vs control (Trk receptor [2]; oocytes collected 22 h after hCG): did not differ
"NT-3: human neurotrophin-3 (R & D Systems) (protein, UniProt P20783 139-257, looked up) Neurotrophin-3: YAEHKSHRGEYSVCDSESLWVTDKSSAIDIRGHQVTVLGEIKTGNSPVKQYFYETRCKEARPVKNGCRGIDDKHWNSQCKTSQTYVRALTSENNKLVGWRWIRIDTSCVCALSRKIGRT",not,,,,,,
"BDNF: recombinant human BDNF (Pepro-Tech), neurotrophin, ligand of TrkB (protein, human, recombinant human BDNF (Pepro-Tech), neurotrophin, ligand of TrkB) MTILFLTMVISYFGCMKAAPMKEANIRGQGGLAYPGVRTHGTLESFTVNGPKAGSRGLTSLADTFEHVIEELLDEDQKVRPNEENNKDADLYTSRVMLSSQVPLEPFTPLLFLLEEYKNYLDAANMSMRVRRHSDPARRGELSVCDSISEWVTAADKKTAVDMSGGTFTVTVLEKVPVSKGQLKQYFYETKCNPMGYTKEGCRGIDKRHWNSQCRTTQSYVRALTMDSFTKKRIGWRFIRIDTSCVCTLTIKRGR",increased,,,,,,"cumulus cell expansion [4]: did not induce; induction of GVBD in oocytes ([4]; 6 h, 5 μg/ml LH or BDNF): not and lack of effect; glutathione content in MII oocytes (MII oocytes): increased; increase in proportion of oocytes showing first polar body extrusion (MII-stage oocytes) ([5]; COCs, 3 ng/ml BDNF, 16 h, 5% FBS): more than 2 fold; increase in proportion of MII oocytes that developed into blastocyst-stage embryos [5, 6]: 5 fold; increase in proportion of MII oocytes that developed into two-cell embryos [5, 6]: 2 fold"
"NGF: mouse nerve growth factor (R & D Systems) (protein, UniProt P01139 122-241, looked up) Beta-nerve growth factor: SSTHPVFHMGEFSVCDSVSVWVGDKTTATDIKGKEVTVLAEVNINNSVFRQYFFETKCRASNPVESGCRGIDSKHWNSYCTTTHTFVKALTTDEKQAAWRFIRIDTACVCVLSRKATRRG",not,,,,,,
